What was measured:
S1P1 W269L = S1P1 W269L (Homo sapiens, UniProt P21453, W269L); experiment: S1P1 mutagenesis analysis, W269L mutant; format: cell-based
Experimental: CHOK1 cells were transfected using Fugene (Roche). Stably expressing mixed pools were selected with 2 mg/ml G418. Expression of functional S1P1/EDG1 receptor was confirmed by cell surface FACS with a S1P1 antibody (R&D Systems, clone 218713). Stable pools were seeded at 40,000 cells/well in a clear bottom 96-well tray, and incubated at 37° C. in 5% CO2 for 18 hrs. Cells were serum-starved in FreeStyle 293 medium (Invitrogen) for 4-6 h, then incubated for 5 min with a dose response of compound, in duplicate. Cells were fixed with 4% paraformaldehyde for 20 min, permeabilized with 0.1% Triton X-100 in PBS (4×5 min washes) and blocked for 1 h in Odyssey Blocking Buffer (LI-COR). All incubations were at room temperature. Cells were incubated for 18 h at 4° C. in Rabbit anti-Phospho-ERK1/2 (Cell Signaling #4377) and Mouse anti-ERK1/2 (Cell Signaling #9107) both diluted 1:800 in Odyssey Blocking Buffer. Plates were washed with 0.1% Tween-20 in PBS and then incubated with Odyssey Blocking Buffer containing IRDye 680-labeled goat anti-rabbit antibody (#926-32221; diluted 1/500) and IRDye 800CW-labeled goat anti-mouse antibody (#926-32210; diluted 1/1000). Plates were washed with 0.1% Tween-20 in PBS, all liquid was removed from the wells and the plates were scanned using a LICOR Odyssey scanner. […] Data was analyzed by non-linear regression using GraphPad Prism to determine the EC50 of binding. […]

S1P1 = S1P1 (Homo sapiens, UniProt P21453); experiment: Phosphorylated-ERK1/2 In Cell Western, wild type S1P1 in CHOK1; format: cell-based
Experimental: CHOK1 cells were transfected using Fugene (Roche). Stably expressing mixed pools were selected with 2 mg/ml G418. Expression of functional S1P1/EDG1 receptor was confirmed by cell surface FACS with a S1P1 antibody (R&D Systems, clone 218713). Stable pools were seeded at 40,000 cells/well in a clear bottom 96-well tray, and incubated at 37° C. in 5% CO2 for 18 hrs. Cells were serum-starved in FreeStyle 293 medium (Invitrogen) for 4-6 h, then incubated for 5 min with a dose response of compound, in duplicate. Cells were fixed with 4% paraformaldehyde for 20 min, permeabilized with 0.1% Triton X-100 in PBS (4×5 min washes) and blocked for 1 h in Odyssey Blocking Buffer (LI-COR). All incubations were at room temperature. Cells were incubated for 18 h at 4° C. in Rabbit anti-Phospho-ERK1/2 (Cell Signaling #4377) and Mouse anti-ERK1/2 (Cell Signaling #9107) both diluted 1:800 in Odyssey Blocking Buffer. Plates were washed with 0.1% Tween-20 in PBS and then incubated with Odyssey Blocking Buffer containing IRDye 680-labeled goat anti-rabbit antibody (#926-32221; diluted 1/500) and IRDye 800CW-labeled goat anti-mouse antibody (#926-32210; diluted 1/1000). Plates were washed with 0.1% Tween-20 in PBS, all liquid was removed from the wells and the plates were scanned using a LICOR Odyssey scanner. […] Data was analyzed by non-linear regression using GraphPad Prism to determine the EC50 of binding.

S1P1 N101A = S1P1 N101A (Homo sapiens, UniProt P21453, N101A); experiment: Phosphorylated-ERK1/2 In Cell Western, S1P1 mutant N101A; format: cell-based
Experimental: (§1) Quick-change mutagenesis with PfuTurbo DNA polymerase (Stratagene) was conducted using S1P1/pcDNA3.1 (Missouri S&T cDNA Resource Centre) as the template. Primers were as follows: […]
(§2) PCR conditions were 15 cycles with the following parameters: 95° C. 30 sec, 58° C. 30 sec, 68° C. for 60 sec. All constructs were sequence verified.
(§3) CHOK1 cells were transfected using Fugene (Roche). Stably expressing mixed pools were selected with 2 mg/ml G418. Expression of functional S1P1/EDG1 receptor was confirmed by cell surface FACS with a S1P1 antibody (R&D Systems, clone 218713). Stable pools were seeded at 40,000 cells/well in a clear bottom 96-well tray, and incubated at 37° C. in 5% CO2 for 18 hrs. Cells were serum-starved in FreeStyle 293 medium (Invitrogen) for 4-6 h, then incubated for 5 min with a dose response of compound, in duplicate. Cells were fixed with 4% paraformaldehyde for 20 min, permeabilized with 0.1% Triton X-100 in PBS (4×5 min washes) and blocked for 1 h in Odyssey Blocking Buffer (LI-COR). All incubations were at room temperature. Cells were incubated for 18 h at 4° C. in Rabbit anti-Phospho-ERK1/2 (Cell Signaling #4377) and Mouse anti-ERK1/2 (Cell Signaling #9107) both diluted 1:800 in Odyssey Blocking Buffer. […] Data was analyzed by non-linear regression using GraphPad Prism to determine the EC50 of binding.

S1P1 R120A/E121A = S1P1 R120A/E121A (Homo sapiens, UniProt P21453, E121A/R120A); experiment: Phosphorylated-ERK1/2 In Cell Western, S1P1 mutant R120A/E121A; format: cell-based
Experimental: as §1, §2, §3

[1] = system: CD4 or CD8 positive T cells; conditions: racemic compound 253; data stated as reported by Gonzalez-Cabrera et al. 2008; cited from earlier work
S1P1/EDG1 = S1P1/EDG1 (Homo sapiens, UniProt P21453); experiment: S1P1 CRE-bla CHOK1 reporter assay, inhibition of Forskolin induced cAMP; format: cell-based; conditions: CRE-bla CHOK1 cells, 2 μM Forskolin; read-out: S1P1 ACTIVITY (agonist activity)
Experimental: Generation of S1P1-Mediated Inhibition of cAMP Reporter Assay
S1P1/pcDNA3.1 was transfected into the CRE-bla CHO K1 (Invitrogen) cell line, and stable single cell clones were selected using standard techniques.
S1P1 CRE-Bla CHOK1 Reporter Assay—Characterization of S1P1 Agonists
Cells were seeded into 384-well black wall/clear bottom plates at 10^4 cells/well/19.5 μl assay media (DMEM-phenol free, 0.5% charcoal/dextran stripped serum, 2 mM glutamine, 0.1 mM NEAA, 1 mM Na-Pyruvate, 25 mM Hepes) and incubated for 18 hrs at 37° C. in 5% CO2. Dose response curves (10-point) were generated in 10 mM Hepes, 0.1% Pluronic F127, in the presence of Forskolin. Cells were treated with 0.5 μl compound in the presence of 2 μM Forskolin for 4 hrs at 37° C. The FRET-based β-lactamase fluorescent substrate (LiveBLAzer™-FRET B/G Loading Kit CC4-AM; Invitrogen) was prepared according to manufacturer's directions, and incubated with cells for 2 hrs at room temperature. […] Data was analyzed by non-linear regression to determine the EC50 for inhibition of Forskolin induced cAMP.

[2] = system: influenza A virus (A/WSN/33); experiment: Influenza A H1N1 model in mice; conditions: mouse, in vivo

Chain of S1P1/EDG1 (P21453 whole entry): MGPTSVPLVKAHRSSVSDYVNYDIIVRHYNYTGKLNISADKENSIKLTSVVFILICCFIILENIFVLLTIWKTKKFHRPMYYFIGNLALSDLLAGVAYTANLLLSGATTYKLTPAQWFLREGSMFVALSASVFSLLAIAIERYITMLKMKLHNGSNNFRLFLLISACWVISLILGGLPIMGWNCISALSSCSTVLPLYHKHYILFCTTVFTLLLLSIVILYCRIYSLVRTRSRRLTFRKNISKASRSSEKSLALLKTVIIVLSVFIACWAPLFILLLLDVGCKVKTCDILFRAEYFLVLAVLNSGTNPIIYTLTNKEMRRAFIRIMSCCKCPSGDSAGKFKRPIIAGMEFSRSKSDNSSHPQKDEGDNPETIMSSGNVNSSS
Chain of S1P1 R120A/E121A (P21453 whole entry R120A/E121A): as the sequence (P21453 whole entry) above, with R120A, E121A counted along it
Chain of S1P1 W269L (P21453 whole entry W269L): as the sequence (P21453 whole entry) above, with W269L counted along it
Chain of S1P1 N101A (P21453 whole entry N101A): as the sequence (P21453 whole entry) above, with N101A counted along it
Chain of S1P1 (P21453 whole entry): as the sequence (P21453 whole entry) above

SMILES	EC50 (S1P1/EDG1)	further results
CC(C)Oc1ccc(-c2nc(-c3cccc4c3CCC4NCCC(=O)O)no2)cc1C#N (racemic) [Compound 38]	–	effect of S1P1 mutation on binding (S1P1 W269L): abolishes binding; S1P1 agonism, phosphorylation of ERK1/2 (S1P1): induce phosphorylation of ERK1/2; effect of S1P1 mutation on binding (S1P1 N101A): no effect on binding; effect of S1P1 mutation on binding (S1P1 R120A/E121A): diminishes binding
CCOc1ccc(-c2nc(-c3cccc4c3CCC4NCCO)no2)cc1OCC (racemic) [Compound 253, (+/−)-2-((4-(5-(3,4,DIETHOXYPHENYL)-1,2,4-OXADIAZOL-3-YL)-2,3-DIHYDRO-1H-INDEN-1-YL) AMINO)ETHANOL]	–	Mouse Lymphopenia (AUEC) [1]: 116
CCOc1ccc(-c2nc(-c3cccc4c3CC[C@H]4O)no2)cc1[N+](=O)[O-] [Compound 11]	500 to 5000 pM	–
CCOc1ccc(-c2nc(-c3cccc4c3CC[C@@H]4O)no2)cc1[N+](=O)[O-] [Compound 12]	500 to 5000 pM	–
CC(C)Oc1ccc(-c2nc(-c3cccc4c3CCC4NC[C@H](O)CO)no2)cc1C#N (stereo partly shown) [Compound 41]	50 to 500 pM	–
CC(C)Oc1ccc(-c2nc(-c3cccc4c3CCC4NC[C@@H](C)O)no2)cc1C#N (stereo partly shown) [Compound 42]	500 to 5000 pM	–
CC(C)Oc1ccc(-c2nc(-c3cccc4c3CCC4NC[C@H](C)O)no2)cc1C#N (stereo partly shown) [Compound 43]	50 to 500 pM	–
CC(C)Oc1ccc(-c2nc(-c3cccc4c3CC[C@@H]4N)no2)cc1C#N [Compound 50, (S)-5-(3-(1-amino-2,3-dihydro-1H-inden-4-yl)-1,2,4-oxadiazol-5-yl)-2-isopropoxy-benzonitrile]	–	effect of S1P1 mutation on binding (S1P1 W269L): abolishes binding; S1P1 agonism, phosphorylation of ERK1/2 (S1P1): induce phosphorylation of ERK1/2; effect of S1P1 mutation on binding (S1P1 N101A): reduces the binding; effect of S1P1 mutation on binding (S1P1 R120A/E121A): no influence on the binding
CC(C)Oc1ccc(-c2nc(-c3cccc4c3CC[C@H]4NC(C)C(=O)N(C)C)no2)cc1C#N (stereo partly shown) [Compound 58]	500 to 5000 pM	–
CC(C)Oc1ccc(-c2nc(-c3cccc4c3CC[C@H]4NCC(=O)N3CCOCC3)no2)cc1C#N [Compound 59]	50 to 500 pM	–
CC(C)Oc1ccc(-c2nc(-c3cccc4c3CC[C@H]4NS(C)(=O)=O)no2)cc1C#N [Compound 70]	50 to 500 pM	–
CNCCS(=O)(=O)N[C@@H]1CCc2c(-c3noc(-c4ccc(OC(C)C)c(C#N)c4)n3)cccc21 [Compound 74]	50 to 500 pM	–
CC(C)Oc1ccc(-c2nc(-c3cccc4c3CC[C@H]4NS(=O)(=O)CCN(C)C)no2)cc1C#N [Compound 77]	50 to 500 pM	–
CC(C)Oc1ccc(-c2nc(-c3cccc4c3CC[C@H]4NCCO)no2)cc1C#N [Compound 85, (R)-5-(3-(1-(2-hydroxyethylamino)-2,3-dihydro-1H-inden-4-yl)-1,2,4-oxadiazol-5-yl)-2-isopropoxybenzonitrile]	–	suppression of cellular infiltrate into the lungs [2]: 40%
COCCN[C@@H]1CCc2c(-c3noc(-c4ccc(OC(C)C)c(C#N)c4)n3)cccc21 [Compound 88]	500 to 5000 pM	–
CC(C)Oc1ccc(-c2nc(-c3cccc4c3CC[C@H]4N(C)CCO)no2)cc1C#N [Compound 111]	500 to 5000 pM	–
CC(C)Oc1ccc(-c2nc(-c3cccc4c3CC[C@@H]4N(C)CC(=O)N(C)C)no2)cc1C#N [Compound 115]	500 to 5000 pM	–
CC(C)Oc1ccc(-c2nc(-c3cccc4c3CC[C@@H]4N(CCO)S(=O)(=O)c3ccccc3)no2)cc1C#N [Compound 117]	> 5000 pM	–
CC(C)Oc1ccc(-c2nc(-c3cccc4c3CC[C@@H]4NC(=O)N(C)C)no2)cc1C#N [Compound 120]	50 to 500 pM	–
CC(C)Oc1ccc(-c2nc(-c3cccc4c3CC[C@H]4NC(=O)c3ccc(Br)cc3)no2)cc1C#N [Compound 122]	> 5000 pM	–
CC(C)Oc1ccc(-c2nc(-c3cccc4c3CC[C@H]4NS(=O)(=O)CCN3CCC3)no2)cc1C#N [Compound 168]	50 to 500 pM	–
CC(C)Oc1ccc(-c2nc(-c3cccc4c3CC[C@@H]4NS(=O)(=O)CCN3CCC(O)CC3)no2)cc1C#N [Compound 178]	500 to 5000 pM	–
CC(C)Oc1ccc(-c2nc(-c3cccc4c3CC[C@@H]4NS(=O)(=O)CCN3CCNCC3)no2)cc1C#N [Compound 179]	500 to 5000 pM	–
CC(C)Oc1ccc(-c2nc(-c3cccc4c3CC[C@@H]4NS(=O)(=O)CCNCCO)no2)cc1C#N [Compound 180]	50 to 500 pM	–
CC(C)Oc1ccc(-c2nc(-c3cccc4c3CC[C@@H]4NS(=O)(=O)CCN3CC(O)C3)no2)cc1C#N [Compound 181]	50 to 500 pM	–
